Source: PubChem BioAssay AID1919001 (Molecular Pharmacology Branch, DTP, NCI, 2023)

Tested on: 699152-130-R-J1-PDC complex spheroid growth
Experiment: Anticancer human tumor 699152-130-R-J1-PDC patient-derived pancreatic carcinoma cell line growth inhibition [AhR]
Settings: for IC50: curve of first compound; for viability, T/C: stronger effect = lower value
Outline: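 Agents were dosed in half-log steps down from roughly clinical Cmax, or from 10 microM where Cmax was unknown, alone and with AhR antagonists. Read-out: percent test/control growth of tumor spheroids containing HUVEC and MSC stromal cells.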

[1] = second compound 0.1 µM, first compound 0.00949 µM
[2] = second compound 0.1 µM, first compound 0.03 µM
[3] = second compound 0.1 µM, first compound 0.0949 µM
[4] = second compound 0.1 µM, first compound 0.3 µM
[5] = second compound 0.316 µM, first compound 0.00949 µM
[6] = second compound 0.316 µM, first compound 0.03 µM
[7] = second compound 0.316 µM, first compound 0.0949 µM
[8] = second compound 0.316 µM, first compound 0.3 µM
[9] = second compound 1 µM, first compound 0.00949 µM
[10] = second compound 1 µM, first compound 0.03 µM
[11] = second compound 1 µM, first compound 0.0949 µM
[12] = second compound 1 µM, first compound 0.3 µM
[13] = second compound 3.16 µM, first compound 0.00949 µM
[14] = second compound 3.16 µM, first compound 0.03 µM
[15] = second compound 3.16 µM, first compound 0.0949 µM
[16] = second compound 3.16 µM, first compound 0.3 µM
[17] = second compound 10 µM, first compound 0.00949 µM
[18] = second compound 10 µM, first compound 0.03 µM
[19] = second compound 10 µM, first compound 0.0949 µM
[20] = second compound 10 µM, first compound 0.3 µM
[21] = second compound 0.1 µM, first compound 0.949 µM
[22] = second compound 0.1 µM, first compound 3 µM
[23] = second compound 0.316 µM, first compound 0.949 µM
[24] = second compound 0.316 µM, first compound 3 µM
[25] = second compound 1 µM, first compound 0.949 µM
[26] = second compound 1 µM, first compound 3 µM
[27] = second compound 3.16 µM, first compound 0.949 µM
[28] = second compound 3.16 µM, first compound 3 µM
[29] = second compound 10 µM, first compound 0.949 µM
[30] = second compound 10 µM, first compound 3 µM
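Also: compound exposure lasted 7 days after spheroids had grown for 3 days.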

CCc1c2c(nc3ccc(O)cc13)-c1cc3c(c(=O)n1C2)COC(=O)[C@]3(O)CC + Cc1ccccc1N=Nc1ccc(NC(=O)c2ccnn2C)c(C)c1
IC50 (second compound 0.1 µM): 0.0128 µM | IC50 (second compound 0.316 µM): 0.015 µM | IC50 (second compound 1 µM): 0.0123 µM | IC50 (second compound 3.16 µM): 0.0223 µM | IC50 (second compound 10 µM): 0.0444 µM | viability, T/C (second compound 0.1 µM, first compound 0.000949 µM): 87.4% | viability, T/C (second compound 0.1 µM, first compound 0.003 µM): 86.4% | viability, T/C [1]: 52.5% | viability, T/C [2]: 46.3% | viability, T/C [3]: 46.9% | viability, T/C [4]: 34.1% | viability, T/C (second compound 0.316 µM, first compound 0.000949 µM): 103% | viability, T/C (second compound 0.316 µM, first compound 0.003 µM): 80% | viability, T/C [5]: 52.2% | viability, T/C [6]: 47.1% | viability, T/C [7]: 41.8% | viability, T/C [8]: 38.9% | viability, T/C (second compound 1 µM, first compound 0.000949 µM): 85% | viability, T/C (second compound 1 µM, first compound 0.003 µM): 78.2% | viability, T/C [9]: 50.8% | viability, T/C [10]: 45% | viability, T/C [11]: 39.6% | viability, T/C [12]: 34.2% | viability, T/C (second compound 3.16 µM, first compound 0.000949 µM): 95.7% | viability, T/C (second compound 3.16 µM, first compound 0.003 µM): 82% | viability, T/C [13]: 57.2% | viability, T/C [14]: 45.6% | viability, T/C [15]: 42.8% | viability, T/C [16]: 29.7% | viability, T/C (second compound 10 µM, first compound 0.000949 µM): 115% | viability, T/C (second compound 10 µM, first compound 0.003 µM): 87.5% | viability, T/C [17]: 60.5% | viability, T/C [18]: 51.2% | viability, T/C [19]: 49.9% | viability, T/C [20]: 39.4%

CCN(c1cc(-c2ccc(CN3CCOCC3)cc2)cc(C(=O)NCc2c(C)cc(C)[nH]c2=O)c1C)C1CCOCC1 + Cc1cncc(-c2nc(NCCc3c[nH]c4ccccc34)c3ncn(C(C)C)c3n2)c1
IC50 (second compound 0.1 µM): > 3 µM | IC50 (second compound 0.316 µM): > 3 µM | IC50 (second compound 1 µM): > 3 µM | IC50 (second compound 3.16 µM): > 3 µM | IC50 (second compound 10 µM): < 0.00949 µM | viability, T/C [1]: 101% | viability, T/C [2]: 110% | viability, T/C [3]: 113% | viability, T/C [4]: 120% | viability, T/C [21]: 98.2% | viability, T/C [22]: 120% | viability, T/C [5]: 88.9% | viability, T/C [6]: 94.4% | viability, T/C [7]: 112% | viability, T/C [8]: 98.9% | viability, T/C [23]: 103% | viability, T/C [24]: 98.7% | viability, T/C [9]: 121% | viability, T/C [10]: 116% | viability, T/C [11]: 116% | viability, T/C [12]: 131% | viability, T/C [25]: 119% | viability, T/C [26]: 112% | viability, T/C [13]: 110% | viability, T/C [14]: 106% | viability, T/C [15]: 114% | viability, T/C [16]: 116% | viability, T/C [27]: 114% | viability, T/C [28]: 112% | viability, T/C [17]: 28.7% | viability, T/C [18]: 30.9% | viability, T/C [19]: 28.9% | viability, T/C [20]: 23.5% | viability, T/C [29]: 22.4% | viability, T/C [30]: 11.3%

O=C(C=Cn1cnc(-c2cc(C(F)(F)F)cc(C(F)(F)F)c2)n1)NNc1cnccn1 + Cc1ccccc1N=Nc1ccc(NC(=O)c2ccnn2C)c(C)c1
IC50 (second compound 0.1 µM): > 3 µM | IC50 (second compound 0.316 µM): > 3 µM | IC50 (second compound 1 µM): > 3 µM | IC50 (second compound 3.16 µM): > 3 µM | IC50 (second compound 10 µM): > 3 µM | viability, T/C [1]: 92.5% | viability, T/C [2]: 84.5% | viability, T/C [3]: 87.8% | viability, T/C [4]: 75.1% | viability, T/C [21]: 78.1% | viability, T/C [22]: 57.5% | viability, T/C [5]: 85.5% | viability, T/C [6]: 82% | viability, T/C [7]: 82.7% | viability, T/C [8]: 79.3% | viability, T/C [23]: 69.1% | viability, T/C [24]: 58% | viability, T/C [9]: 92% | viability, T/C [10]: 90.8% | viability, T/C [11]: 93.2% | viability, T/C [12]: 78.7% | viability, T/C [25]: 74.2% | viability, T/C [26]: 61.6% | viability, T/C [13]: 97.6% | viability, T/C [14]: 115% | viability, T/C [15]: 98.6% | viability, T/C [16]: 69.6% | viability, T/C [27]: 76.4% | viability, T/C [28]: 66.6% | viability, T/C [17]: 120% | viability, T/C [18]: 112% | viability, T/C [19]: 91.7% | viability, T/C [20]: 77.5% | viability, T/C [29]: 69.9% | viability, T/C [30]: 69.7%

CC1COCCN1c1cc(C2(S(C)(=N)=O)CC2)nc(-c2ccnc3[nH]ccc23)n1 (stereo not given) + Cc1cncc(-c2nc(NCCc3c[nH]c4ccccc34)c3ncn(C(C)C)c3n2)c1
IC50 (second compound 0.1 µM): > 10 µM | IC50 (second compound 0.316 µM): > 10 µM | IC50 (second compound 1 µM): > 10 µM | IC50 (second compound 3.16 µM): > 10 µM | IC50 (second compound 10 µM): < 0.0316 µM | viability, T/C (second compound 0.1 µM, first compound 0.0316 µM): 98.9% | viability, T/C (second compound 0.1 µM, first compound 0.1 µM): 103% | viability, T/C (second compound 0.1 µM, first compound 0.316 µM): 113% | viability, T/C (second compound 0.1 µM, first compound 1 µM): 95.9% | viability, T/C (second compound 0.1 µM, first compound 3.16 µM): 85.3% | viability, T/C (second compound 0.1 µM, first compound 10 µM): 74.8% | viability, T/C (second compound 0.316 µM, first compound 0.0316 µM): 96.5% | viability, T/C (second compound 0.316 µM, first compound 0.1 µM): 106% | viability, T/C (second compound 0.316 µM, first compound 0.316 µM): 114% | viability, T/C (second compound 0.316 µM, first compound 1 µM): 119% | viability, T/C (second compound 0.316 µM, first compound 3.16 µM): 95.1% | viability, T/C (second compound 0.316 µM, first compound 10 µM): 77.8% | viability, T/C (second compound 1 µM, first compound 0.0316 µM): 117% | viability, T/C (second compound 1 µM, first compound 0.1 µM): 122% | viability, T/C (second compound 1 µM, first compound 0.316 µM): 126% | viability, T/C (second compound 1 µM, first compound 1 µM): 107% | viability, T/C (second compound 1 µM, first compound 3.16 µM): 123% | viability, T/C (second compound 1 µM, first compound 10 µM): 81.3% | viability, T/C (second compound 3.16 µM, first compound 0.0316 µM): 90.6% | viability, T/C (second compound 3.16 µM, first compound 0.1 µM): 113% | viability, T/C (second compound 3.16 µM, first compound 0.316 µM): 90.9% | viability, T/C (second compound 3.16 µM, first compound 1 µM): 101% | viability, T/C (second compound 3.16 µM, first compound 3.16 µM): 92.3% | viability, T/C (second compound 3.16 µM, first compound 10 µM): 69.9% | viability, T/C (second compound 10 µM, first compound 0.0316 µM): 25.2% | viability, T/C (second compound 10 µM, first compound 0.1 µM): 27.3% | viability, T/C (second compound 10 µM, first compound 0.316 µM): 29.9% | viability, T/C (second compound 10 µM, first compound 1 µM): 24.7% | viability, T/C (second compound 10 µM, first compound 3.16 µM): 25.9% | viability, T/C (second compound 10 µM, first compound 10 µM): 20.2%
